Data published in ChEMBL document CHEMBL2176875, “Ago-allosteric modulators of human glucagon-like peptide 2 receptor” (Bioorg Med Chem Lett, 2012).
Active and inactive are the calls of the source. The calls are words filed in the database; no cut-off is given here.

Experiments:
[1] = biological target: T1, Glucagon-like peptide 2 receptor (Homo sapiens) (UniProt O95838); assay: Positive ago-allosteric modulation of GLP2R overexpressed in human SE302 cells assessed as decrease in GLP2 (11 to 33) EC50 at 10 uM measured on day 3 by Alamar Blue assay relative to control; type: cell-based
T1 sequence (whole entry): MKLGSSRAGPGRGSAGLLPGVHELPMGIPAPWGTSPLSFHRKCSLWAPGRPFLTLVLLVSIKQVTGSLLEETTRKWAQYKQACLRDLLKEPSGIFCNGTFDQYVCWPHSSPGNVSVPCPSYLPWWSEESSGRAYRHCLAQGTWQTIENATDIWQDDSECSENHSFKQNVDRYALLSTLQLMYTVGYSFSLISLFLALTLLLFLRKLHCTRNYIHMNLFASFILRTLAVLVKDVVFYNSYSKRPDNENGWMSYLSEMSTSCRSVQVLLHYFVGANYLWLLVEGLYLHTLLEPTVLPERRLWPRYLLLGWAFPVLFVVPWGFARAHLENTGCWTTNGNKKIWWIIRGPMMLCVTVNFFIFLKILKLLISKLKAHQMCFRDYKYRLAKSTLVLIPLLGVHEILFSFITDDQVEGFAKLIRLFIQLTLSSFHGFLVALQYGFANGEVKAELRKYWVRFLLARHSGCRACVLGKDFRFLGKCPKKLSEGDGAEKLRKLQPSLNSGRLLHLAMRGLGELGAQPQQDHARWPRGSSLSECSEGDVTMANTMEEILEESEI

[2] = biological target: T1, Glucagon-like peptide 2 receptor (Homo sapiens); assay: Positive ago-allosteric modulation of GLP2R overexpressed in human SE302 cells assessed as increase in intracellular cAMP level at 10 uM after 30 mins in presence of GLP2; type: functional, cell-based
[3] = biological target: T1, Glucagon-like peptide 2 receptor (Homo sapiens); assay: Positive ago-allosteric modulation of GLP2R overexpressed in human SE302 cells assessed as increase in GLP2 (11 to 33)-induced placental alkaline phosphatase activation at 10 uM measured on day 3 by Alamar Blue assay relative to GLP2; type: cell-based
[4] = biological target: T1, Glucagon-like peptide 2 receptor (Homo sapiens); assay: Positive ago-allosteric modulation of GLP2R overexpressed in human SE302 cells assessed as increase in GLP2 (11 to 33)-induced placental alkaline phosphatase activation at 1 uM measured on day 3 by Alamar Blue assay relative to control; type: cell-based
[5] = biological target: T1, Glucagon-like peptide 2 receptor (Homo sapiens); assay: Positive ago-allosteric modulation of GLP2R overexpressed in human SE302 cells assessed as increase in intracellular cAMP level at 1 to 10 uM after 30 mins in presence of GLP2 (11 to 33); type: functional, cell-based
[6] = biological target: T1, Glucagon-like peptide 2 receptor (Homo sapiens); assay: Positive ago-allosteric modulation of GLP2R overexpressed in human SE302 cells assessed as decrease in GLP2 (3 to 33) EC50 at 1 uM measured on day 3 by Alamar Blue assay relative to control; type: cell-based
[7] = biological target: T1, Glucagon-like peptide 2 receptor (Homo sapiens); assay: Positive ago-allosteric modulation of GLP2R overexpressed in human SE302 cells assessed as increase in GLP2 (11 to 33)-induced placental alkaline phosphatase activation at 10 uM measured on day 3 by Alamar Blue assay relative to control; type: cell-based
[8] = biological target: T1, Glucagon-like peptide 2 receptor (Homo sapiens); assay: Positive ago-allosteric modulation of GLP2R overexpressed in human SE302 cells assessed as increase in GLP2-induced placental alkaline phosphatase activation at 10 uM measured on day 3 by Alamar Blue assay relative to control; type: cell-based
[9] = biological target: T1, Glucagon-like peptide 2 receptor (Homo sapiens); assay: Positive ago-allosteric modulation of GLP2R overexpressed in human SE302 cells assessed as increase in intracellular cAMP level at 10 to 100 uM after 30 mins; type: functional, cell-based
[10] = biological target: T1, Glucagon-like peptide 2 receptor (Homo sapiens); assay: Positive ago-allosteric modulation of GLP2R overexpressed in human SE302 cells assessed as placental alkaline phosphatase activation at 25 uM measured on day 3 by Alamar Blue assay relative to 100 pM GLP2; type: cell-based
[11] = biological target: T1, Glucagon-like peptide 2 receptor (Homo sapiens); assay: Positive ago-allosteric modulation of GLP2R overexpressed in human SE302 cells assessed as upward shift in GLP2-induced placental alkaline phosphatase activation measured on day 3 by Alamar Blue assay; type: cell-based
[12] = biological target: T1, Glucagon-like peptide 2 receptor (Homo sapiens); assay: Positive ago-allosteric modulation of GLP2R overexpressed in human SE302 cells assessed as placental alkaline phosphatase activation at 25 uM measured on day 3 by Alamar Blue assay relative to 10 pM GLP2; type: cell-based
[13] = biological target: T1, Glucagon-like peptide 2 receptor (Homo sapiens); assay: Positive ago-allosteric modulation of GLP2R overexpressed in human SE302 cells assessed as increase in intracellular cAMP level at 1 to 10 uM after 30 mins in presence of GLP2 (3 to 33); type: functional, cell-based
[14] = biological target: Glucagon-like peptide 1 receptor (Homo sapiens) (UniProt P43220); assay: Positive ago-allosteric modulation of GLP1R overexpressed in human SE302 cells assessed as increase in intracellular cAMP level at 10 to 100 uM after 30 mins; type: functional, cell-based
[15] = biological target: T1, Glucagon-like peptide 2 receptor (Homo sapiens); assay: Positive ago-allosteric modulation of GLP2R overexpressed in human SE302 cells assessed as decrease in GLP2 (11 to 33) EC50 at 1 uM measured on day 3 by Alamar Blue assay relative to control; type: cell-based
[16] = biological target: T1, Glucagon-like peptide 2 receptor (Homo sapiens); assay: Positive ago-allosteric modulation of GLP2R overexpressed in human SE302 cells assessed as placental alkaline phosphatase activation measured on day 3 by Alamar Blue assay; type: cell-based
[17] = biological target: T1, Glucagon-like peptide 2 receptor (Homo sapiens); assay: Positive ago-allosteric modulation of GLP2R overexpressed in human SE302 cells assessed as GLP2 (3 to 33)-induced placental alkaline phosphatase activation at 10 uM measured on day 3 by Alamar Blue assay relative to GLP2; type: cell-based
[18] = biological target: T1, Glucagon-like peptide 2 receptor (Homo sapiens); assay: Positive ago-allosteric modulation of GLP2R overexpressed in human SE302 cells assessed as change in GLP2 EC50 measured on day 3 by Alamar Blue assay relative to control; type: cell-based
[19] = biological target: T1, Glucagon-like peptide 2 receptor (Homo sapiens); assay: Positive ago-allosteric modulation of GLP2R overexpressed in human SE302 cells assessed as increase in GLP2 (3 to 33)-induced placental alkaline phosphatase activation at 10 uM measured on day 3 by Alamar Blue assay relative to control; type: cell-based
[20] = biological target: T1, Glucagon-like peptide 2 receptor (Homo sapiens); assay: Positive ago-allosteric modulation of GLP2R overexpressed in human SE302 cells assessed as decrease in GLP2 (3 to 33) EC50 at 10 uM measured on day 3 by Alamar Blue assay relative to control; type: cell-based
[21] = biological target: T1, Glucagon-like peptide 2 receptor (Homo sapiens); assay: Positive ago-allosteric modulation of GLP2R overexpressed in human SE302 cells assessed as increase in GLP2 (3 to 33)-induced placental alkaline phosphatase activation at 1 uM measured on day 3 by Alamar Blue assay relative to control; type: cell-based
[22] = biological target: T1, Glucagon-like peptide 2 receptor (Homo sapiens); assay: Positive ago-allosteric modulation of GLP2R overexpressed in human SE302 cells assessed as leftward shift in GLP2-induced placental alkaline phosphatase activation measured on day 3 by Alamar Blue assay; type: cell-based

Glucagon-like peptide 1 receptor (Homo sapiens), sequence (P43220 whole entry): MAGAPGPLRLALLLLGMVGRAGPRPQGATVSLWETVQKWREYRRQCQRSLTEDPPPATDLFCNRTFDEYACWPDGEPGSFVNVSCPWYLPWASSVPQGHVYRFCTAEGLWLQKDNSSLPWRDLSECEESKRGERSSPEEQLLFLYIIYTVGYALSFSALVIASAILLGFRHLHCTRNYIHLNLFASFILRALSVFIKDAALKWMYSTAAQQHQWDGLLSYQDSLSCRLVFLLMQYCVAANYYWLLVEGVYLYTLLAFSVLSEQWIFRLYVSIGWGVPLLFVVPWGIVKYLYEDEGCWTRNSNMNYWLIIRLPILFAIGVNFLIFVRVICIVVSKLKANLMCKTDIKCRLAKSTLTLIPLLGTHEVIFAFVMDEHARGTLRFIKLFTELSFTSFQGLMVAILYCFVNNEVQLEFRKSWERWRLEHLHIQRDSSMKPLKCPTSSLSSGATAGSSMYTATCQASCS

SMILES: O/N=C(\CSc1ccccc1)c1cc(Cl)sc1Cl
- fold change (FC) [1]: 17
- Activity [2]: Active
- Activity [3]: Active
- %max [4]: 490%
- Activity [5]: Active
- fold change (FC) [6]: 1.2
- %max [7]: 930%
- Activity [8]: 10%
- Activity [9]: Active
- %max [10]: 55%
- Activity [11]: Dose-dependent effect
- %max [12]: 701%
- Activity [13]: Active
- Activity [14]: inactive
- fold change (FC) [15]: 3.4
- Activity [16]: inactive
- Activity [17]: Active
- Activity [18]: inactive
- %max [19]: 150%
- fold change (FC) [20]: 3.3
- %max [21]: 110%
- Activity [22]: Dose-dependent effect
